Measurements from patent US9358276B2, “Methods of diagnosing and treating small intestinal bacterial overgrowth (SIBO) and SIBO-related conditions” (Cedars-Sinai Medical Center, priority 1999, dated 2016).

How the values were obtained:
[1] = test system: isolated segment of guinea pig colon; details: Wade et al. 1996; slower as dose increased; cited from earlier work
[2] = test system: intestinal transit; assay: Intestinal transit in multi-fistulated dogs, cumulative % recovery of 99mTc-DTPA; format: in vivo, dog; details: n=2
Text: The experiments described below are based on a previously described chronic multi-fistulated dog model, employing surgically fistulated male or female mongrel dogs weighing about 25 kg each. (Lin, H. C. et al., Inhibition of gastric emptying by glucose depends on length of intestine exposed to nutrient, Am. J. Physiol. 256:G404-G411 [1989]). The small intestines of the dogs were each about 300 cm long from the pylorus to the ileal-cecal valve. The duodenal fistula was situated 15 cm from the pylorus; the mid-gut fistula was situated 160 cm from the pylorus. Occluding Foley catheters (balloon catheters that are inflated to produce a water-tight seal with the lumenal surface) were placed into the distal limb of a duodenal fistula and a mid-gut fistula, fat or other test agents were administered lumenally to the thus compartmentalized Aproximal≅ section of the gut, i.e., between the fistulas, or to the compartmentalized Adistal≅ section of the gut, i.e., beyond the mid-gut fistula. Perfusate was pumped into a test section through the catheter at a rate of 2 mL/minute. Test agents were administered along with buffer perfusate, but some test agents were administered intravenously, where specifically noted.
Intestinal transit measurements were made by tracking the movement of a liquid marker across the approximately 150 cm intestinal test segment by delivering about 20 μCi ^99mTc chelated to diethyltriamine pentaacetic acid (DTPA)(Cunningham, K. M. et al., Use of technicium-99m (V)thiocyanate to measure gastric emptying of fat, J. Nucl. Med. 32:878-881 [1991]) as a bolus into the test segment after 60 minutes of a 90-minute perfusion. The output from the mid-gut fistula was collected every 5 min thereafter for 30 minutes, which period is illustrated in FIGS. 9-23. Using a matched dose of ^99mTc to represent the original radioactivity (Johansson, C., Studies of gastrointestinal interactions, Scand. J. Gastroenterol. 9(Suppl 28):1-60 [1974]; Zierler, K., A simplified explanation of the theory of indicator dilution for measurement of fluid flow and volume and other distributive phenomena, Bull. John Hopkins 103:199-217 [1958]), the radioactivity delivered into the animal as well as the radioactivity of the recovered fistula output were all measured using a gamma well counter. After correcting all counts to time zero, intestinal transit was calculated as the cumulative percent recovery of the delivered ^99mTc-DTPA. This method has been well validated over the years and appreciated for its advantage of minimal inadvertent marker loss. […] There was a very high level of marker recovery, with 90% of the marker recovered by 30 minutes and 98% of the marker recovered by 45 minutes.

[3] = test system: release of 5-HT from the proximal gut; assay: 5-HT released by the proximal gut (ELISA of mid-gut fistula output); format: in vivo, dog; details: intravenous PYY (0.8 mg/kg/h); Control 140.1 μg
Method: To test the hypothesis that fat in the distal gut causes the release of 5-HT in the proximal gut, the amount of 5-HT collected from the output of the mid-gut fistula (proximal gut 5-HT) over a 90-minute period of buffer perfusion through both the duodenal and mid-gut fistulas (2 mL/min); buffer (control) or oleate (60 mM) was administered to the distal gut (n=1). The amount of 5-HT was determined using an ELISA kit specific for 5-HT (Sigma; Graham-Smith, D. G., The carcinoid syndrome, In: Topics in Gastroenterology, Truclove, S. C. and Lee, E. (eds.), Blackwells, London, p. 275 [1977]; Singh, S. M. et al., Concentrations of serotonin in plasma-a test for appendicitis?, Clin. Chem. 34:2572-2574 [1988]). The amount of 5-HT released by the proximal gut increased in response to fat in the distal gut from 100 μg in the control (buffer minus oleate) to 338 μg (buffer plus oleate to distal gut), showing that 5-HT is released in the proximal gut in response to fat in the distal gut. Thus, the release of 5-HT by the proximal gut can serve as a relayed signal for fat in the distal gut. The relayed release of 5-HT in the proximal gut in response to fat in the distal gut is consistent with Example 14(2), showing that slowing of intestinal transit by fat depends on an efferent 5-HT-mediated pathway to the proximal gut.
To test the hypothesis that 5-HT in the distal gut causes the release of 5-HT in the proximal gut, the amount of 5-HT collected from the output at the mid-gut fistula (Proximal gut 5-HT) over a 90-minute period of buffer perfusion through both the duodenal and mid-gut fistulas (2 mL/min each) was compared in the presence or absence of 5-HT (0.05 mg/kg/h) administered to the distal gut (n=1). 5-HT concentration was determined using an ELISA kit specific for 5-HT (Sigma). The amount of 5-HT released by the proximal gut increased from 156 μg in the control (minus distal 5-HT) to 450 μg (plus 5-HT to distal gut), implying that 5-HT is released by the proximal gut in response to 5-HT in the distal gut. Thus, the release of 5-HT by the proximal gut can serve as a relayed signal for distal gut 5-HT. This relayed release of 5-HT in the proximal gut explains the results of Example 14(6) showing that the slowing of intestinal transit by distal gut 5-HT was abolished by ondansetron in the proximal gut (efferent limb of response) as well as in the distal gut (afferent limb of response).
To test the hypothesis that the proximal gut releases 5-HT in response to lipid in the distal gut, we compared the amount of 5-HT in the output of the midgut fistula (i.e., proximal gut 5-HT) with buffered saline (control) or oleate in the distal gut. The amount of 5-HT collected over 90 min was measured using a 5-HT-specific ELISA test kit, as described herein above. Four dogs were tested.
The amount of 5-HT released from the proximal gut in response to intravenous PYY or buffered saline (Control) during buffer perfusion (2 mL/min over 90 minutes) through both the duodenal and mid-gut fistulas was measured to test the hypothesis that intravenous PYY (0.8 mg/kg/h) causes the release of 5-HT in the proximal gut. 5-HT was measured as in Example 14(9) above. The amount of 5-HT released by the proximal gut increased from 140.1 μg (Control) to 463.1 μg in response to intravenous PYY.

[4] = test system: isolated canine ileum; details: infused into isolated canine ileum; Fox-Threlkeld et al. 1993; cited from earlier work

Compound | passage of a pellet through an isolated segment of guinea pig colon [1] | marker recovery ([2]; 30 μg PYY (0.8 mg/kg/h) intravenously, Buffer Control 78.1±2.2%) | marker recovery ([2]; IV PYY 0.8 μg/kg/h + lumenal normal saline, control 75.1±3.6%) | amount of 5-HT released by the proximal gut [3] | phasic circular muscle activity [4]
CNCCC(Oc1ccc(C(F)(F)F)cc1)c1ccccc1 (centres unmarked) [fluoxetine] | initially accelerated |  |  |  | 
PYY: Peptide YY, a physiological fat signal molecule that slows transit |  | 11.8±5.4% | 17.1±11.0% | 463.1 µg | dose-dependently increased
